Assay results: patent publication US20170080198A1, “DEVICES AND METHODS FOR ENHANCING THE TOPICAL APPLICATION OF A BENEFIT AGENT” (Johnson & Johnson Consummer Inc., priority 2015, published 2017)

Test: In vitro skin permeation study, Franz diffusion cell, with or without ultrasound (sonophoresis)
Type: in vitro ADME, human
Settings: for UT60°/Non-UTGel 1 (permeation enhancement factor): Study 2, Gel 1 with 60° sonophoresis vs Gel 1 passive; for UT15°/Non-UTGel 1 (permeation enhancement factor) / UT90°/Non-UTGel 1 (permeation enhancement factor): Study 3; for UT15°/Non-UTGel 1 (permeation enhancement factor): Gel 1 with 15° sonophoresis vs Gel 1 passive; for UT90°/Non-UTGel 1 (permeation enhancement factor): Gel 1 with 90° sonophoresis vs Gel 1 passive
Source text: The experimental setup to run sonophoresis (ultrasound) studies with Franz cell diffusion cells consisted of a custom-built universal generator capable of driving ultrasonic transducers in the 20 kHz-2 MHz range with electronic power up to 60 W (Voltage+/−30V, Current: 2A, duty cycle 50%) with a square waveform. The real power delivered to the transducer depended on the specific experimental conditions and is specified for each experiment. The driving waveform was delivered to the transducer through a coaxial cable having a BNC connector at one end and a custom non-coaxial connector at the transducer end.
The tranducer was piezoelectric and had either a disk shaped form (either 20 or 25 mm in diameter) or a rectangular shape 10×20 mm^2). The thickness of the transducer depended on its fundamantal frequency being inversely proportional with it. In order to prevent the liquid or the gel from perturbing the electrical connection, each transducer was encapsulated in a plastic case leaving only one side of the transducer exposed to the topical composition. The case was made out of a rigid plastic and the transducers were sealed with silicone adhesive to enable them to oscilalte more or less freely. The case also enabled the electrical connections to be isolated from the topical composition.
For sonophoresis experiments where the ultrasonic wave energy was delivered perpendicular to the skin, disk-shaped transducers were used in the encapsulation setup described above. For the angled ultrasound application the case encapsulating the ultrasonic transducer was assembled in a hinged configuration, enabling angles between 15 and 90 degrees (perpendicular). Note: an angle of 0 degrees would send the ultrasonic wave parallel with the skin surface.
In vitro skin permeation studies on 5% Ibuprofen gel compositions without ultrasound (passive diffusion), or facilitated by the application of ultrasound (sonophoresis), through human cadaver skin were performed as follows:
A skin penetration study evaluated the penetration of ibuprofen through the human skin for the inventive sample prepared as disclosed in Example 1. A commercial ibuprofen gel product, IBULEVE Ibuprofen Gel (by DDD ltd, Watford, Herts, WD18 7JJ, UK) was used as a benchmark, which contains 5% W/W ibuprofen, also IMS (Industrial Methylated Spirits), carbomer, propylene glycol, diethylamine and purified water according to the product label on its package. A well-known Franz diffusion cell method (taught in US20020006418 A1 which is hereby incorporated by reference) was used. […] A magnetic stirrer bar was added in the […]. The liquid receptor was filled with Phosphate-buffered saline (PBS) solution. Air bubbles in the […] were removed. The system was thermostated at 37° C. above a magnetic stirrer to ensure the homogeneity of the liquid receptor during the experiment. A human cadaver skin sample from a commercial tissue bank (Ohio Valley Tissue and Skin Center, Cincinnati, Ohio, dermatomed to approximately 0.4 mm) was cut to fit the glass diffusion cell and the skin was mounted on the Franz cell.
For the diffusion cells designated to be tested for passive diffusion, a test gel sample of 0.2 ml was applied on the skin surface. For the diffusion cells designated to test for sonophoresis, additional test sample (2-5 ml) was added in order to assure the entire, or at least a large portion, of the ultrasonic transducer tip was immersed by the test gel during the ultrasound treatment. The excess gel was promptly removed from the donor cell after the ultrasound treatment so that the remaining test gel was approximately 0.2 ml.
Ultrasound treatments were carried out with the following test conditions: • a) Conventional ultrasound treatment with 90 degree angle (°) between the ultrasound direction and the skin surface; • b) Angled Ultrasound treatment with less than 90 degree angle between the ultrasound direction and the skin surface. […]

UT60°/Non-UTGel 1 (permeation enhancement factor) (6 hr): approximately 2.9 fold
UT60°/Non-UTGel 1 (permeation enhancement factor) (24 hr): ~2.0 fold
UT15°/Non-UTGel 1 (permeation enhancement factor) (6 hr): approximately 3.0 fold
UT15°/Non-UTGel 1 (permeation enhancement factor) (24 hr): approximately 3.0 fold
UT90°/Non-UTGel 1 (permeation enhancement factor) (6 hr): approximately 2.3 fold
UT90°/Non-UTGel 1 (permeation enhancement factor) (24 hr): ~2.0 fold
SMILES: CC(C)Cc1ccc(C(C)C(=O)O)cc1 (stereo not drawn) [ibuprofen]
